Columns and labels:
[1] = test system: Human betaherpesvirus 5; assay: Antiviral activity against HCMV infected in U-937 cells expressed in DC-SIGN using flow cytometry; format: functional, organism-based; settings: Human betaherpesvirus 5, U-937
[2] = test system: Human betaherpesvirus 5; assay: Potency index, ratio of Mannan IC50 to test compound IC50 for antiviral activity against HCMV infected in U-937 cells expressed in DC-SIGN using flow cytometry; format: functional

| SMILES | IC50 [1] | Ratio IC50 [2] |
| --- | --- | --- |
| C[C@@H]1O[C@@H](OCc2cn(CCCCCC(=O)N(O)Cc3cn(CCCOc4c5cc(C(C)(C)C)cc4Cc4cc(C(C)(C)C)cc(c4OCCCn4cc(CN(O)C(=O)CCCCCn6cc(CO[C@@H]7O[C@@H](C)[C@@H](O)[C@@H](O)[C@@H]7O)nn6)nn4)Cc4cc(C(C)(C)C)cc(c4OCCCn4cc(CN(O)C(=O)CCCCCn6cc(CO[C@@H]7O[C@@H](C)[C@@H](O)[C@@H](O)[C@@H]7O)nn6)nn4)Cc4cc(C(C)(C)C)cc(c4OCCCn4cc(CN(O)C(=O)CCCCCn6cc(CO[C@@H]7O[C@@H](C)[C@@H](O)[C@@H](O)[C@@H]7O)nn6)nn4)C5)nn3)nn2)[C@@H](O)[C@H](O)[C@@H]1O | 0.5 µg/mL | 31 |
| CC(C)(C)c1cc2c(OCCCn3cc(CN(O)C(=O)CCCCCn4cc(CO[C@H]5O[C@H](CO)[C@@H](O)[C@H](O)[C@@H]5O)nn4)nn3)c(c1)Cc1cc(C(C)(C)C)cc(c1OCCCn1cc(CN(O)C(=O)CCCCCn3cc(CO[C@H]4O[C@H](CO)[C@@H](O)[C@H](O)[C@@H]4O)nn3)nn1)Cc1cc(C(C)(C)C)cc(c1OCCCn1cc(CN(O)C(=O)CCCCCn3cc(CO[C@H]4O[C@H](CO)[C@@H](O)[C@H](O)[C@@H]4O)nn3)nn1)Cc1cc(C(C)(C)C)cc(c1OCCCn1cc(CN(O)C(=O)CCCCCn3cc(CO[C@H]4O[C@H](CO)[C@@H](O)[C@H](O)[C@@H]4O)nn3)nn1)C2 | 0.45 µg/mL | 34 |
| COC(=O)CNC(=O)CN(Cc1cn(CCCOc2c3cc(C(C)(C)C)cc2Sc2cc(C(C)(C)C)cc(c2OCCCn2cc(CN(CC(=O)NCC(=O)OC)C(=O)CCCCCn4cc(CO[C@@H]5O[C@@H](C)[C@@H](O)[C@@H](O)[C@@H]5O)nn4)nn2)Sc2cc(C(C)(C)C)cc(c2OCCCn2cc(CN(CC(=O)NCC(=O)OC)C(=O)CCCCCn4cc(CO[C@@H]5O[C@@H](C)[C@@H](O)[C@@H](O)[C@@H]5O)nn4)nn2)Sc2cc(C(C)(C)C)cc(c2OCCCn2cc(CN(CC(=O)NCC(=O)OC)C(=O)CCCCCn4cc(CO[C@@H]5O[C@@H](C)[C@@H](O)[C@@H](O)[C@@H]5O)nn4)nn2)S3)nn1)C(=O)CCCCCn1cc(CO[C@@H]2O[C@@H](C)[C@@H](O)[C@@H](O)[C@@H]2O)nn1 | 3.15 µg/mL | 4.91 |
| COC(=O)CNC(=O)CN(Cc1cn(CCCOc2c3cc(C(C)(C)C)cc2Cc2cc(C(C)(C)C)cc(c2OCCCn2cc(CN(CC(=O)NCC(=O)OC)C(=O)CCCCCn4cc(CO[C@@H]5O[C@@H](C)[C@@H](O)[C@@H](O)[C@@H]5O)nn4)nn2)Cc2cc(C(C)(C)C)cc(c2OCCCn2cc(CN(CC(=O)NCC(=O)OC)C(=O)CCCCCn4cc(CO[C@@H]5O[C@@H](C)[C@@H](O)[C@@H](O)[C@@H]5O)nn4)nn2)Cc2cc(C(C)(C)C)cc(c2OCCCn2cc(CN(CC(=O)NCC(=O)OC)C(=O)CCCCCn4cc(CO[C@@H]5O[C@@H](C)[C@@H](O)[C@@H](O)[C@@H]5O)nn4)nn2)C3)nn1)C(=O)CCCCCn1cc(CO[C@@H]2O[C@@H](C)[C@@H](O)[C@@H](O)[C@@H]2O)nn1 | 2.4 µg/mL | 6.45 |
| OC[C@H]1O[C@@H](O[C@H]2[C@H](O)[C@@H](O)[C@H](O[C@H]3[C@H](O)[C@H](O)[C@H](O[C@@H]4[C@H](O)[C@H](O)[C@H](O)O[C@@H]4CO)O[C@@H]3CO)O[C@@H]2CO)[C@@H](O)[C@@H](O)[C@@H]1O | 15.5 nM | – |

From ChEMBL document CHEMBL5032520, “Low-Valent Calix[4]arene Glycoconjugates Based on Hydroxamic Acid Bearing Linkers as Potent Inhibitors in a Model of Ebola Virus Cis-Infection and HCMV-gB-Recombinant Glycoprotein Interaction with MDDC Cells by Blocking DC-SIGN” (J Med Chem, 2021)
